Laboratory results reported in ChEMBL document CHEMBL4706720, “Pyrrolidine Compounds as Potential Lipid-Lowering Therapeutic in Cardiovascular Disease” (ACS Med Chem Lett, 2021).

Assay: Inhibition of lipoprotein(a) assembly from Apo(a) and LDL particle in human HepG2 and HEK293 combined conditioned media incubated for 2 hrs by sandwich ELISA

Row | IC50 | Compound
1 | 348 pM | O=C(O)[C@@H](Cc1cccc(Nc2cccc(C[C@H](C(=O)O)[C@H]3CCNC3)c2)c1)[C@H]1CCNC1
2 | 563 pM | O=C(O)[C@@H](Cc1cccc(NS(=O)(=O)Nc2cccc(C[C@H](C(=O)O)[C@H]3CCNC3)c2)c1)[C@H]1CCNC1
3 | 288 pM | O=C(O)[C@@H](Cc1cccc(OCCOc2cccc(C[C@H](C(=O)O)[C@H]3CCNC3)c2)c1)[C@H]1CCNC1
4 | 396 pM | O=C(O)[C@@H](Cc1cccc([S+]([O-])c2cccc(C[C@H](C(=O)O)[C@H]3CCNC3)c2)c1)[C@H]1CCNC1
5 | 372 pM | O=C(O)[C@@H](Cc1cccc(Oc2cccc(C[C@H](C(=O)O)[C@H]3CCNC3)c2)c1)[C@H]1CCNC1
6 | 108 pM | CC(Cc1cccc(CN(Cc2cccc(CC(C)(C(=O)O)[C@H]3CCNC3)c2)Cc2cccc(CC(C)(C(=O)O)[C@H]3CCNC3)c2)c1)(C(=O)O)[C@H]1CCNC1 (some centres not stated)
7 | 934 pM | O=C(O)[C@@H](Cc1cccc(CNCc2cccc(C[C@H](C(=O)O)[C@H]3CCNC3)c2)c1)[C@H]1CCNC1
8 | 96.3 pM | O=C(O)[C@@H](Cc1cccc(CN(Cc2cccc(C[C@H](C(=O)O)[C@H]3CCNC3)c2)Cc2cccc(C[C@H](C(=O)O)[C@H]3CCNC3)c2)c1)[C@H]1CCNC1
9 | 359 pM | O=C(O)[C@@H](Cc1cccc(COc2cccc(C[C@H](C(=O)O)[C@H]3CCNC3)c2)c1)[C@H]1CCNC1
10 | 235 pM | O=C(O)[C@@H](Cc1cccc(S(=O)(=O)c2cccc(C[C@H](C(=O)O)[C@H]3CCNC3)c2)c1)[C@H]1CCNC1
11 | 360 pM | O=C(O)[C@@H](Cc1cccc(Sc2cccc(C[C@H](C(=O)O)[C@H]3CCNC3)c2)c1)[C@H]1CCNC1
12 | 170 pM | COc1cc(F)cc(CN(Cc2cccc(C[C@H](C(=O)O)[C@H]3CCNC3)c2)Cc2cccc(C[C@H](C(=O)O)[C@H]3CCNC3)c2)c1
